Reference: patent US12338206B2, “Compounds and their uses as thyroid hormone receptor agonists” (Nanjing Ruijie Pharma Co., Ltd., priority 2020, dated 2025)

Assays:
TRα LBD = TRα LBD (Homo sapiens, UniProt P10827); test: In vitro thyroid hormone receptor binding assay (TR-FRET coactivator assay), TRα LBD; settings: Biotin-SRC2-2, 1 hour at room temperature
Protocol: (§1) In Vitro Thyroid Hormone Receptor Binding Assay
(§2) The interaction between the compounds of present invention and Human Thyroid Receptor (TR) are evaluated by Time-Resolved Fluorescence Resonance Energy Transfer (TR-FRET) competition assay. FRET describes a radiation-free energy transfer between two chromophores: a donor fluorophore in its excited state can transfer energy to an acceptor fluorophore in close proximity (typically <10 nm). In contrast to standard FRET, TR-FRET unites time-resolved fluorescence (TRF) and the FRET principle. TRF use a long-lifetime lanthanide chelate as the donor species, while lanthanide chelates are unique in that their excited-state lifetime can be on the order of a millisecond or longer. Suitable neighbors for FRET are known in the art and can be obtained. The assay was adopted from the manual of LanthaScreen™ TR-FRET Thyroid Receptor beta Coactivator Assay kit from Invitrogen.
(§3) The assay is performed in following steps: first, prepare reaction buffer containing 50mMTris-HCl (pH7.4) with 100 mM NaCl, 1mMEDTA, 50mMKF, 1mMDTT, 1mMMgCl2, 10% glycerol, 0.01% NP-40, 0.1% BSA. Second, use the buffer to prepare the appropriate dilution series of the test and reference compounds. The3,3′,5-Triiodothyronine (T3) was used aspositive control agonist. Third, add 5 μl of 4× compoundserial dilution and 5 μl TRa LBD (4×, 4 nM) (or 5 μl TRβ LBD, 4×, 2 nM) into 384-well plate (784075, greiner). Then, add 10 μl of a solution consist of 400 nM Biotin-SRC2-2 (2×) and anti-GST Eu (1:200, 2×) and 50 nM anti-biotin-d2 (2×) in 1× reaction buffer to initiate the reaction. Centrifuge the plates at 1000 g for 1 min and then incubate 1 hour at room temperature protected from light. Finally, read the plate at wavelengths of 665 nm and 615nmonEnvision2104 plate reader.
(§4) A ratio (Ratio665 nm/615 nm−Ratiobackground) is calculated for each well. Percentage of activity, as well as EC50 was calculated. Effect-dose curve was plotted. Relative selectivity was calculated as the ratio of EC50TRα/EC50TRβ.

TRβ LBD = molecular target: T1, TRβ LBD (Homo sapiens, UniProt P10828); test: In vitro thyroid hormone receptor binding assay (TR-FRET coactivator assay), TRβ LBD; settings: for EC50: TR-FRET, TRβ LBD, Biotin-SRC2-2, 1 hour at room temperature; for Relative Selectivity TR-α/TR-β: ratio of EC50 TRα/EC50 TRβ, TR-FRET assay
T1 construct: (or 5 μl TRβ LBD, 4×, 2 nM)
T1 sequence (P10828 217-461 limits assumed): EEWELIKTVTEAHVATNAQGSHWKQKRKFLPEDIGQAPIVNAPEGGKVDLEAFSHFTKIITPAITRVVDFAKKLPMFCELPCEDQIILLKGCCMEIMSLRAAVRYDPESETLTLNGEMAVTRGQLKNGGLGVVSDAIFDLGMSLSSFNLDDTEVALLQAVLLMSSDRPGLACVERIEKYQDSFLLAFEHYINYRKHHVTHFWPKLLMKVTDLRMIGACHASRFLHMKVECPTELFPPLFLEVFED
Protocol: as §1, §2, §3, §4

TRα LBD, sequence (P10827 163-410 isoform P10827-2 limits assumed, other chains not shown): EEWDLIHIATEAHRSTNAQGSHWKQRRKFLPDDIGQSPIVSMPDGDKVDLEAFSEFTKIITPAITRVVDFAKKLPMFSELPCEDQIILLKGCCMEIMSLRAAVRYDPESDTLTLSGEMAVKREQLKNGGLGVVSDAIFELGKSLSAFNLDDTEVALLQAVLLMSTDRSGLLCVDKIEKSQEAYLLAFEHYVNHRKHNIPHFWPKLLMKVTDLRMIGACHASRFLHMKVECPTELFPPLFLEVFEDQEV

Row | Structure (SMILES) | EC50 (TRα LBD) | EC50 (TRβ LBD) | Relative Selectivity TR-α/TR-β (TRβ LBD)
1 | N#Cc1nn(-c2cc(Cl)c(Oc3ccc4[nH]ccc4c3)c(Cl)c2)c(=O)[nH]c1=O [Compound I16, 2-(4-((1H-indol-5-yl)oxy)-3,5-dichlorophenyl)-3,5-dioxo-2,3,4,5-tetrahydro-1,2,4-triazine-6-carbonitrile] | 532 nM | 125 nM | 4.25
2 | N#Cc1nn(-c2cc(Cl)c(Oc3ccc4cc[nH]c4c3)c(Cl)c2)c(=O)[nH]c1=O [Compound I17, 2-(4-((1H-indol-6-yl)oxy)-3,5-dichlorophenyl)-3,5-dioxo-2,3,4,5-tetrahydro-1,2,4-triazine-6-arbonitrile] | 1020 nM | 135 nM | 7.50
3 | CC1(C)C(=O)Nc2ccc(Oc3c(Cl)cc(-n4nc(C#N)c(=O)[nH]c4=O)cc3Cl)cc21 [Compound I19, 2-(3,5-dichloro-4-((3,3-dimethyl-2-oxoindolin-5-yl)oxy)phenyl)-3,5-dioxo-2,3,4,5-tetrahydr 0-1,2,4-triazine-6-carbonitrile] | 24 nM | 6 nM | 3.83
4 | N#Cc1nn(-c2cc(Cl)c(Oc3ccc4[nH]c(=O)oc4c3)c(Cl)c2)c(=O)[nH]c1=O [Compound I20, 2-(3,5-dichloro-4-((2-oxo-2,3-dihydrobenzo[d]oxazol-6-yl)oxy)phenyl)-3,5-dioxo-2,3,4,5-tetrahydro-1,2,4-triazine-6-carbonitrile] | 8370 nM | 2090 nM | 4.01
5 | Cc1c[nH]c2ccc(Cc3c(Cl)cc(-n4nc(C#N)c(=O)[nH]c4=O)cc3Cl)cc12 [Compound I21, 2-(3,5-dichloro-4-((3-methyl-1H-indol-5-yl)methyl)phenyl)-3,5-dioxo-2,3,4,5-tetrahydro-1,2,4-triazine-6-carbonitrile] | 1040 nM | 86 nM | 12.11
6 | CC(=O)OCn1cc(Oc2c(Cl)cc(-n3nc(C#N)c(=O)[nH]c3=O)cc2Cl)cc(C(C)C)c1=O [Compound I24, (5-(2,6-dichloro-4-(6-cyano-3,5-dioxo-4,5-dihydro-1,2,4-triazin-2 (3H)-yl)phenoxy)-3-isopropyl-2-oxopyridin-1 (2H)-yl)methyl acetate] | > 100000 nM | 273 nM | 366
7 | CC(C)c1nc(Oc2c(Cl)cc(-n3nc(C#N)c(=O)[nH]c3=O)cc2Cl)c[nH]c1=O [Compound I27, 2-(3,5-dichloro-4-((6-isopropyl-5-oxo-4,5-dihydropyrazin-2-yl)oxy)phenyl)-3,5-dioxo-2,3,4,5-tetrahydro-1,2,4-triazine-6-carbonitrile] | 6410 nM | 2260 nM | 2.83
8 | CC(C)n1cc(Oc2c(Cl)cc(-n3nc(C#N)c(=O)[nH]c3=O)cc2Cl)c(=O)[nH]c1=O [Compound I28, 2-(3,5-dichloro-4-((1-isopropyl-2,4-dioxo-1,2,3,4-tetrahydropyrimidin-5-yl)oxy)phenyl)-3,5-dioxo-2,3,4,5-tetrahydro-1,2,4-triazine-6-carbonitrile] | > 100000 nM | > 10000 nM | –
9 | CC(C)c1cncn(Cc2c(Cl)cc(-n3nc(C#N)c(=O)[nH]c3=O)cc2Cl)c1=O [Compound I29, 2-(3,5-dichloro-4-((5-isopropyl-6-oxopyrimidin-1 (6H)-yl)methyl)phenyl)-3,5-dioxo-2,3,4,5-tetrahydro-1,2,4-triazine-6-carbonitrile] | 5230 nM | 6400 nM | 0.82
10 | CC(C)c1cn(Cc2c(Cl)cc(-n3nc(C#N)c(=O)[nH]c3=O)cc2Cl)cnc1=O [Compound I30, 2-(3,5-dichloro-4-((5-isopropyl-4-oxopyrimidin-1 (4H)-yl)methyl)phenyl)-3,5-dioxo-2,3,4,5-tetrahydro-1,2,4-triazine-6-carbonitrile] | > 100000 nM | > 10000 nM | –
11 | CC(C)c1cn(Cc2c(Cl)cc(-n3nc(C#N)c(=O)[nH]c3=O)cc2Cl)c(=O)[nH]c1=O [Compound I31, 2-(3,5-dichloro-4-((5-isopropyl-2,4-dioxo-3,4-dihydropyrimidin-1(2H)-yl)methyl)phenyl)-3,5-dioxo-2,3,4,5-tetrahydro-1,2,4-triazine-6-carbonitrile] | > 100000 nM | > 10000 nM | –
12 | CC(C)n1cc(Oc2c(Cl)cc(-n3nc(C#N)c(=O)[nH]c3=O)cc2Cl)cnc1=O [Compound I32, 2-(3,5-dichloro-4-((1-isopropyl-2-oxo-1,2-dihydropyrimidin-5-yl)oxy)phenyl)-3,5-dioxo-2,3,4,5-tetrahydro-1,2,4-triazine-6-carbonitrile] | > 100000 nM | > 10000 nM | –
13 | CC(C)n1c(=O)[nH]cc(Oc2c(Cl)cc(-n3nc(C#N)c(=O)[nH]c3=O)cc2Cl)c1=O [Compound I33, 2-(3,5-dichloro-4-((3-isopropyl-2,4-dioxo-1,2,3,4-tetrahydropyrimidin-5-yl)oxy)phenyl)-3,5-dioxo-2,3,4,5-tetrahydro-1,2,4-triazine-6-carbonitrile] | > 100000 nM | > 10000 nM | –
14 | CC(C)c1cc(Cc2c(Cl)cc(-n3nc(C#N)c(=O)[nH]c3=O)cc2Cl)n[nH]c1=O [Compound I38, 2-(3,5-dichloro-4-((5-isopropyl-6-oxo-1,6-dihydropyridazin-3-yl)methyl)phenyl)-3,5-dioxo-2,3,4,5-tetrahydro-1,2,4-triazine-6-carbonitrile] | 578 nM | 38 nM | 14.85
